Data taken from patent publication US20260102460A1, “NOVEL COMBINATIONS OF ANTIBIOTICS AND NON-ANTIBIOTIC DRUGS EFFECTIVE IN VIVO AGAINST GRAM-POSITIVE BACTERIA, IN PARTICULAR METHICILLIN-RESISTANT S. AUREUS (MRSA)” (EUROPEAN MOLECULAR BIOLOGY LABORATORY, priority 2022, published 2026).
Entries after “also recorded” stand apart in the source; their conditions may differ.

Legend:
MRSA = assay: G. mellonella infection model, drug combination therapy; type: in vivo, Galleria mellonella; conditions: G. mellonella infected with MRSA isolate resistant to tigecycline, gentamicin 2 μg/ml, ticagrelor 100 μg/ml (FIG. 5e)
Description: (§1) Drug interaction networks in S. aureus, with drugs grouped according to their class (a) or targeted cellular process (b). Unique interactions across both strains tested are considered (i=331). Edge thickness represents the proportion of interactions for each node pair, considering all possible interactions given the number of drugs in each node. Nodes depict the drug class (a) or the targeted cellular process (b), and size is proportional to the number of drugs in the represented class/process. Only interacting drugs are considered (d=62). Synergies, antagonisms and nodes are colored according to FIG. 1. c. Novel and previously reported interactions detected in S. aureus. Interactions are considered known if reported in any S. aureus strain (Supplementary Table 4). d-e. Novel synergies are effective against MRSA clinical isolates in vitro (d) and in vivo in the G. mellonella infection model (e). […] The percentage of surviving larvae after treatment and in the untreated controls was monitored over time. […]
Larvae of the greater wax moth (Galleria mellonella) at their final instar larval stage were used for evaluation of selected drug combinations to assess their efficacy against MRSA in vivo. […] The survival of Galleria larvae was monitored at the indicated time points by two observers independently. Each strain-drug combination was evaluated in three independent experiments.

S. aureus Newman [1] = assay: Two-dimensional thermal proteome profiling (2D-TPP), whole cell and lysate; type: cell-based, Staphylococcus aureus; conditions: for thermal stability of ATP- and GTP-binding enzymes and transporters: ticagrelor 0.04-4 μg/ml
S. aureus USA300 = assay: Time-kill experiments; type: cell-based, Staphylococcus aureus; conditions: ticagrelor 5 μg/ml, gentamicin 1.5 μg/ml, plated every 30 minutes for 2 hours (FIG. 5d)
Description: Overnight cultures of S. aureus USA300 were diluted 1:100 in 20 ml of TSB medium, incubated for 1 h in flasks at 37° C. with continuous shaking and diluted again 1:100 in 20 ml prewarmed TSB with ticagrelor (5 μg/ml), gentamicin (1.5 μg/ml), their combination or without drugs. 50 μl of serial 10-fold dilutions of cultures were plated on TSA plates every 30 minutes for 2 hours. Cell viability was determined by counting CFUs after plates were incubated overnight in four independent experiments.

MRSA clinical isolates = assay: 8×8 broth microdilution checkerboard assays; type: cell-based, Staphylococcus aureus; conditions: MSSA and MRSA
Description: as §1
Combinations were tested in the same experimental conditions as for the screen, but at higher concentration resolution: drugs were diluted in eight concentrations spanning linearly-space gradients to assemble 8×8 checkerboards for each combination tested. […] Data was analyzed with the same pipeline as for the screen (Methods).

S. aureus Newman [2] = assay: Cytochrome c binding assay (cell surface charge); type: cell-based, Staphylococcus aureus; conditions: ticagrelor 10 and 5 μg/ml for 20 minutes
Description: The cytochrome c binding assay was conducted as previously described (Radlinski, L. C. et al. Chemical Induction of Aminoglycoside Uptake Overcomes Antibiotic Tolerance and Resistance in Staphylococcus aureus. Cell Chem Biol 26, 1355-1364.e4 (2019)). Briefly, overnight cultures of S. aureus Newman were diluted 1:1000 in 20 ml of TSB medium and grown in flasks at 37° C. with continuous shaking until they reached OD578 nm˜0.45. Samples were then incubated in the same conditions with or without 10 and 5 μg/ml ticagrelor for 20 minutes. Samples were centrifuged at 10000 g for 15 minutes, washed twice with 20 mM MOPS buffer (pH 7) and concentrated to reach a final A578 of 10 in a 96 well-plate (ref. 4483481, Applied Biosystems™) containing cytochrome c (0.25 mg/ml, ref. 101467, MP Bio) or MOPS buffer (FIG. 5g). The plate was incubated in the dark at room temperature for 10 minutes. The cell pellets were collected, and the amount of cytochrome c in the supernatant was determined spectrophotometrically at an OD410 nm. Two-fold dilutions of cytochrome c in the same plate, starting from 256 μg/ml, were used to obtain a standard curve onto which a linear model was fitted to calculate cytochrome c concentrations in the other wells. Results are expressed as unbound cytochrome c fraction in the supernatants. Experiments were conducted in four biological replicates.

`CCCSc1nc(N[C@@H]2C[C@H]2c2ccc(F)c(F)c2)c2nnn([C@@H]3C[C@H](OCCO)[C@@H](O)[C@H]3O)c2n1` [ticagrelor] was tested, and the “interaction with gentamicin in vivo (survival of infected larvae)” value (MRSA) was “evident”, the “interaction with gentamicin in vivo (survival of infected larvae)” value (MRSA; listed as Ticagrelor) was “synergizes” and the “abundance of purine biosynthesis enzymes (PurC, PurD, PurE, PurF, PurK, PurL, PurM, PurN, PurQ)” value (S. aureus Newman [1]; live cells) was “induction”. The “thermal stability of DltC and DltD (LTA D-alanylation)” value (S. aureus Newman [1]; lysate) was “destabilized”, the “thermal stability of ClfA, ClfB, coagulase Coa and vWBP” value (S. aureus Newman [1]; lysate, clinically-relevant ticagrelor concentration) was “destabilization” and the “thermal stability of ATP- and GTP-binding enzymes and transporters” value (S. aureus Newman [1]; lysate) was “destabilization”. For the same molecule, the “thermal stability of TagG (WTA translocase subunit)” value (S. aureus Newman [1]; whole cell sample) was “destabilized”, the “thermal stability of ATP- and GTP-binding enzymes and transporters” value (S. aureus Newman [1]; whole cell) was “destabilization” and the “abundance of ClfA, ClfB, coagulase Coa and vWBP” value (S. aureus Newman [1]; whole-cell samples, clinically-relevant ticagrelor concentration) was “downregulation”. The “interaction with gentamicin at killing level (CFU over time)” value (S. aureus USA300) was “evident”, the “interaction with gentamicin at killing level (CFU over time)” value (S. aureus USA300; listed as Ticagrelor) was “synergizes” and the “interaction with gentamicin at growth inhibition level” value (MRSA clinical isolates; MRSA isolate resistant to tigecycline (FIG. 5c), ticagrelor combined with gentamicin) was “sensitized; also recorded: synergizes”. For the same molecule, the “sensitization to cationic peptide nisin” value (MRSA clinical isolates; ticagrelor combined with nisin) was “sensitized” and the “binding of positively-charged cytochrome C to intact S. aureus cells” value (S. aureus Newman [2]) was “increased”.
